Where two headings read alike, the source gives them in different places. Square brackets hold non-standard residues; d marks the D form. Ends that are not written are not given here. Peptide text beside a SMILES is read from it. Cit = NC(=O)NCCC[C@H](N)C(=O)O
Columns and labels:
[1] = biological target: T1, HLA-DRB1*01:01 (Homo sapiens, UniProt P01903+P01911, A100R/D57E/F55L/F60I/F76Y/I96L/L162R/M171V/P40L/Q125E/R42F/V115G/Y59C); assay: HLA class II peptide binding, inhibition of radiolabeled peptide binding to purified MHC
T1 construct: EBV transformed homozygous cell lines were used as sources of MHC molecules; endogenous in cells; host or cells: EBV transformed homozygous cell lines

[2] = biological target: T2, HLA-DRB1*04:01 (Homo sapiens, UniProt P01903+P01911, A100K/A169T/F76Y/I96L/K127E/L162R/M171V/N62H/P40V/Q125Y/R42H/S133A/S149N/S66Y/V115G/V209L/W38E); assay: as above
T2 construct: EBV transformed homozygous cell lines were used as sources of MHC molecules; endogenous in cells; host or cells: EBV transformed homozygous cell lines

[3] = citrullinated 15-mer (X), purified MHC, inhibition of radiolabeled peptide binding, dash = IC50 >40,000 nM, read-out: DRB1*01:01 binding capacity, Cit peptide (IC50 nM)
[4] = citrullinated 15-mer (X), purified MHC, inhibition of radiolabeled peptide binding, dash = IC50 >40,000 nM, read-out: DRB1*04:01 binding capacity, Cit peptide (IC50 nM)
[5] = citrullinated 15-mer peptide (X = citrulline), purified HLA-DRB1*01:01, read-out: DRB1*01:01 binding capacity, Cit peptide (IC50 nM)
[6] = citrullinated 15-mer peptide (X = citrulline), purified HLA-DRB1*04:01, read-out: DRB1*04:01 binding capacity, Cit peptide (IC50 nM)
[7] = wild-type (unmodified Arg) 15-mer peptide, purified HLA-DRB1*01:01, read-out: DRB1*01:01 binding capacity, WT peptide (IC50 nM)
[8] = wild-type (unmodified Arg) 15-mer peptide, purified HLA-DRB1*04:01, read-out: DRB1*04:01 binding capacity, WT peptide (IC50 nM)

| Compound | IC50 [1, 5] [nM] | IC50 [2, 6] [nM] | IC50 [1, 7] [nM] | IC50 [2, 8] [nM] | further results |
| --- | --- | --- | --- | --- | --- |
| CSCC[C@H](NC(=O)[C@H](CCC(=O)O)NC(=O)[C@H](CCC(=O)O)NC(=O)[C@H](CCC(=O)O)NC(=O)[C@H](Cc1ccc(O)cc1)NC(=O)[C@H](CC(C)C)NC(=O)[C@H](CC(=O)O)NC(=O)CNC(=O)[C@@H](N)CC(C)C)C(=O)N[C@@H](CCCNC(N)=O)C(=O)N[C@@H](CCC(=O)O)C(=O)N[C@@H](CC(C)C)C(=O)N[C@@H](CCCNC(=N)N)C(=O)N[C@@H](CCCNC(=N)N)C(=O)N[C@@H](CCC(N)=O)C(=O)O [LGDLYEEEMXELRRQ] | – | – | – | – | IC50 [1, 3]: 13800 nM; IC50 [2, 4]: > 40000 nM |
| CC[C@H](C)[C@H](NC(=O)CNC(=O)[C@H](C)NC(=O)[C@H](C)NC(=O)CNC(=O)[C@H](CCCNC(N)=O)NC(=O)[C@H](CCC(=O)O)NC(=O)CNC(=O)[C@@H]1CCCN1C(=O)[C@H](CCSC)NC(=O)CNC(=O)[C@H](CCC(N)=O)NC(=O)[C@H](CC(C)C)NC(=O)CNC(=O)[C@@H]1CCCN1)C(=O)O [PGLQGMPGEXGAAGI] (H-PGLQGMPGE[Cit]GAAGI-OH) | 55 | 4170 | – | – | – |
| CC[C@H](C)[C@H](NC(=O)[C@H](CCC(=O)O)NC(=O)[C@H](CC(=O)O)NC(=O)[C@H](CCC(N)=O)NC(=O)[C@H](CC(C)C)NC(=O)[C@H](CCCNC(N)=O)NC(=O)CNC(=O)[C@@H](NC(=O)[C@@H](NC(=O)[C@H](CC(=O)O)NC(=O)[C@H](CCC(N)=O)NC(=O)[C@H](Cc1ccc(O)cc1)NC(=O)[C@H](CC(N)=O)NC(=O)[C@H](C)N)[C@@H](C)O)[C@@H](C)CC)C(=O)N[C@@H](CCC(N)=O)C(=O)O [ANYQDTIGXLQDEIQ] (H-ANYQDTIG[Cit]LQDEIQ-OH) | 1050 | 6720 | – | – | – |
| ERGLKGHRGFTGLQG [Collagen 1126 WT] | – | – | 29 | > 40000 | – |
| CC(C)C[C@H](NC(=O)[C@H](C)NC(=O)[C@H](C)NC(=O)[C@@H](N)[C@@H](C)O)C(=O)N[C@@H](CCCNC(=N)N)C(=O)N[C@@H](CC(=O)O)C(=O)N[C@H](C(=O)N[C@@H](CCCNC(N)=O)C(=O)N[C@@H](CCC(N)=O)C(=O)N[C@@H](CCC(N)=O)C(=O)N[C@@H](Cc1ccc(O)cc1)C(=O)N[C@@H](CCC(=O)O)C(=O)N[C@@H](CO)C(=O)N[C@H](C(=O)N[C@@H](C)C(=O)O)C(C)C)C(C)C [TAALRDVXQQYESVA] (H-TAALRDV[Cit]QQYESVA-OH) | – | – | – | – | IC50 [1, 3]: 896 nM; IC50 [2, 4]: 7160 nM |
| CC[C@H](C)[C@H](NC(=O)CN)C(=O)N[C@H](C(=O)NCC(=O)N[C@@H](CC(C)C)C(=O)N1CCC[C@H]1C(=O)NCC(=O)N[C@@H](CCC(N)=O)C(=O)N[C@@H](CCCNC(=N)N)C(=O)NCC(=O)N[C@@H](CCC(=O)O)C(=O)N[C@@H](CCCNC(N)=O)C(=O)NCC(=O)N[C@@H](Cc1ccccc1)C(=O)N1CCC[C@H]1C(=O)O)C(C)C [GIVGLPGQRGEXGFP] (H-GIVGLPGQRGE[Cit]GFP-OH) | 6.7 | 5800 | – | – | – |
| THSKRTLLIKTVETR [Vimentin 436 WT] | – | – | 109 | 6220 | – |

Further lines, with some results ahead:

| IC50 [1, 5] [nM] | IC50 [2, 6] [nM] | IC50 [1, 7] [nM] | IC50 [2, 8] [nM] | Compound | further results |
| --- | --- | --- | --- | --- | --- |
| 10900 | > 40000 | – | – | CSCC[C@H](NC(=O)[C@H](Cc1ccc(O)cc1)NC(=O)[C@H](CCC(N)=O)NC(=O)[C@H](CC(C)C)NC(=O)[C@@H]1CCCN1C(=O)[C@H](CC(=O)O)NC(=O)[C@@H]1CCCN1C(=O)CNC(=O)[C@H](CCCCN)NC(=O)[C@H](CCC(=O)O)NC(=O)[C@H](CCCNC(N)=O)NC(=O)[C@@H]1CCCN1C(=O)CNC(=O)[C@@H](N)CC(C)C)C(=O)N[C@@H](CCCNC(=N)N)C(=O)O [LGPXEKGPDPLQYMR] (H-LGP[Cit]EKGPDPLQYMR-OH) | – |
| – | – | 22400 | > 40000 | PPGPQGPAGEQGPRG [Collagen 121 WT] | – |
| – | – | 10400 | > 40000 | QGPRGLPGTPGTDGP [Collagen 716 WT] | – |

From publication PMC5421785, “Citrullination only infrequently impacts peptide binding to HLA class II MHC” (PLoS ONE, 2017)
